Measurements published in ChEMBL document CHEMBL5223189, “Discovery of Selective Aldehyde Dehydrogenase Inhibitors for the Treatment of Cancer” (ACS Med Chem Lett, 2023).

Tests used:
Retinal dehydrogenase 2 = biological target: T1, Retinal dehydrogenase 2 (Homo sapiens, UniProt O94788); test: Inhibition of full length human ALDH1A2 using propionaldehyde as substrate preincubated for 30 mins followed by substrate addition and measured after 30 mins in presence of NAD by luminescence microplate reader analysis
T1 sequence (O94788 whole entry): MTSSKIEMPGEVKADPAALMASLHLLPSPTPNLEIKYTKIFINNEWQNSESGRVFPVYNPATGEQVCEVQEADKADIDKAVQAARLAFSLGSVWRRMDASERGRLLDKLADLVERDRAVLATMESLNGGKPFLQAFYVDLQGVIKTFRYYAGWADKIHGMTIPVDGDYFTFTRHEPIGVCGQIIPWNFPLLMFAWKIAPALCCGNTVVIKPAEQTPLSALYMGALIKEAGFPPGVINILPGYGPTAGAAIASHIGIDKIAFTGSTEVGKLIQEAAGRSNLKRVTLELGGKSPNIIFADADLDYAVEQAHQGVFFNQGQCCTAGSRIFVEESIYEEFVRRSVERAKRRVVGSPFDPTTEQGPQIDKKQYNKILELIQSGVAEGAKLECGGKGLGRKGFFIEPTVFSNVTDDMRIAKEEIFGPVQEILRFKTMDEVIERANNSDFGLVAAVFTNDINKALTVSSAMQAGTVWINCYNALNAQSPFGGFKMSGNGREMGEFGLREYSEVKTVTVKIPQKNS

[1] = biological target: T2, Retinaldehyde dehydrogenase 3 (Homo sapiens, UniProt P47895); test: Inhibition of full length human ALDH1A3 using propionaldehyde as substrate preincubated for 30 mins followed by substrate addition and measured after 30 mins in presence of NAD by luminescence microplate reader analysis
T2 sequence (P47895 whole entry): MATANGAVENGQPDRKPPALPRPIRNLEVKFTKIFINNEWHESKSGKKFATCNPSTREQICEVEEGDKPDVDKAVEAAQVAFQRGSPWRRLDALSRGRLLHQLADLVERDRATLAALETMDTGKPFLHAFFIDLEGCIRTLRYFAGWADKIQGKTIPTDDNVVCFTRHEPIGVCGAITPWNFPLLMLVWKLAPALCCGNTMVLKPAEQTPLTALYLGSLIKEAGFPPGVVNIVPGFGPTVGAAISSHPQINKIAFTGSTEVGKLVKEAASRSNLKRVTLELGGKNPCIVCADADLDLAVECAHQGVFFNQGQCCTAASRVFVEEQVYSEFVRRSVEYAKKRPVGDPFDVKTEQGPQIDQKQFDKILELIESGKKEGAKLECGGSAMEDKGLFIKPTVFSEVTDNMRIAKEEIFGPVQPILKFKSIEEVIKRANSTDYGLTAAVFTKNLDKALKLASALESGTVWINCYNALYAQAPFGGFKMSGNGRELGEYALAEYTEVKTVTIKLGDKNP

[2] = biological target: T3, Aldehyde dehydrogenase, mitochondrial (Homo sapiens, UniProt P05091); test: Inhibition of full length human ALDH2 using propionaldehyde as substrate preincubated for 30 mins followed by substrate addition and measured after 30 mins in presence of NAD by luminescence microplate reader analysis
T3 sequence (P05091 whole entry): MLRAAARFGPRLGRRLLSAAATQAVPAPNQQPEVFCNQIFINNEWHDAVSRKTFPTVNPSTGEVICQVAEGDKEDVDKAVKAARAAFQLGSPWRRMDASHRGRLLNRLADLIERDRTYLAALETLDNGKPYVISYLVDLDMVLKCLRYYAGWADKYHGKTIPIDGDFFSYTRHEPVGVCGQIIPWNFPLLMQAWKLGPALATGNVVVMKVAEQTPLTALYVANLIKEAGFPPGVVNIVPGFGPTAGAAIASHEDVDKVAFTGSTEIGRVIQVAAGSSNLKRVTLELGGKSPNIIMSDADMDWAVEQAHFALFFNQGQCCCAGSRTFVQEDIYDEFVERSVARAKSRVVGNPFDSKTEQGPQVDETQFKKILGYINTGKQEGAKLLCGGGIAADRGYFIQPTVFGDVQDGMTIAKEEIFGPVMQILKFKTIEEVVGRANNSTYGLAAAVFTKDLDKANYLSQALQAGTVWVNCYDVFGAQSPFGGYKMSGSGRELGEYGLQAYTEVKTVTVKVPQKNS

[3] = biological target: T2, Retinaldehyde dehydrogenase 3; test: Inhibition of human ALDH1A3 in human WM266-4 cells incubated for 60 mins using BODIPY-aminoacetaldehyde as substrate in presence of ALDEFLUOR assay buffer by Hoechst 33342 staining based cell Insight fluorescent microscopic anlaysis
[4] = biological target: T4, Aldehyde dehydrogenase 1A1 (Homo sapiens, UniProt P00352); test: Inhibition of full length human ALDH1A1 using propionaldehyde as substrate preincubated for 30 mins followed by substrate addition and measured after 30 mins in presence of NAD by luminescence microplate reader analysis
T4 sequence (P00352 whole entry): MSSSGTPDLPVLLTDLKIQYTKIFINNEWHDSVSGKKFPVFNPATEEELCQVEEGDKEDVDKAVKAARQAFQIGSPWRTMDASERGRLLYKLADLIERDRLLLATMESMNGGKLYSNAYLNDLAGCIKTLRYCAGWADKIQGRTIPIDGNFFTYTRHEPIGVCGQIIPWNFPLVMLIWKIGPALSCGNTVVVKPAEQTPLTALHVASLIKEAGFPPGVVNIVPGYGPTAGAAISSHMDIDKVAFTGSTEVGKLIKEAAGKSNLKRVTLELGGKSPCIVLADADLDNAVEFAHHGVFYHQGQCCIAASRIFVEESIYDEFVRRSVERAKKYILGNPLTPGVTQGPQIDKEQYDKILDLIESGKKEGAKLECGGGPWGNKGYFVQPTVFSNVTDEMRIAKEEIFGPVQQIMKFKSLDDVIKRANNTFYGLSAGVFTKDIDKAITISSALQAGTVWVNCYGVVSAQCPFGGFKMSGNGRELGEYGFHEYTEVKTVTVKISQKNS

| IC50 (Retinal dehydrogenase 2) | IC50 [1] | IC50 [2] | IC50 [3] | IC50 [4] | SMILES |
| --- | --- | --- | --- | --- | --- |
| 0.1 µM | < 0.1 µM | ≥ 100 µM | < 0.1 µM | ≥ 100 µM | O=C1CCc2cc(OCCN3CCC[C@@H]3c3cccc(F)c3)ccc2N1 |
| 1 µM | < 0.1 µM | ≥ 100 µM | < 0.1 µM | ≥ 100 µM | CN(C)c1nc(-c2cccc(F)c2)c(C(=O)Nc2ccc3c(c2)CCC(=O)N3)s1 |
| 1 µM | < 0.1 µM | ≥ 100 µM | < 0.1 µM | ≥ 100 µM | O=C1CCc2cc(NC(=O)c3scnc3-c3cccc(F)c3)ccc2N1 |
| ≥ 100 µM | < 0.1 µM | ≥ 100 µM | < 0.1 µM | ≥ 100 µM | O=C1CCc2cc(NC(=O)c3sc(N4CC(O)C4)nc3-c3cccc(F)c3)ccc2N1 |
| 0.1 µM | < 0.1 µM | ≥ 100 µM | < 0.1 µM | ≥ 100 µM | O=C1CCc2cc(OCCN3CCCC3c3cccc(F)c3)ccc2N1 (stereo not given) |
| ≥ 100 µM | < 0.1 µM | ≥ 100 µM | < 0.1 µM | ≥ 100 µM | O=C1CCc2cc(NC(=O)c3sc(N4CCOCC4)nc3-c3cccc(F)c3)ccc2N1 |
| 10 µM | < 0.1 µM | ≥ 100 µM | < 0.1 µM | ≥ 100 µM | O=C1CCc2cc(NC(=O)c3sc(N4CCNCC4)nc3-c3cccc(F)c3)ccc2N1 |
| 1 µM | < 0.1 µM | ≥ 100 µM | < 0.1 µM | ≥ 100 µM | O=C1CCc2cc(NC(=O)c3scnc3-c3ccccc3F)ccc2N1 |
